From PMC4603696, “Discovery and characterization of novel small-molecule inhibitors targeting nicotinamide phosphoribosyltransferase” (Scientific Reports, 2015)

Columns and labels:
Assay type in all cases: cell-based, human
[1] = test system: HepG2 cells; test: Cell counting kit-8 (CCK-8) cell viability assay in HepG2
Method: Cellc ount ing k it-8 (CCK-8) assa y
Cell vi ability was de termine d by ou r previ ous method9 usi ng the Cell Counting Kit-8 (CCK -8, Dojindo, Ja pa n). In hu man he pa tocellu lar carcinom a cell line HepG 2, cells were seede d in 96-well plate and starve d for ove r 12 h with se rum-free DMEM at 60~ 70% conf lue nc y, the n trea ted wit h com pounds or ve hicle for 24 h to 72 h accor ding to expe riment requi rement s. […]
10 μl CCK-8 sol ution was adde d to the cul ture medium and inc ub ated at 37 °C for 1 h. Th e absor banc e at 450 nm (A450) was de tected by a pl ate reade r. Each e xperi ment w as carr ied out i n t riplic ate i n thr ee r eplic ate w ells.

[2] = test system: NAD level of HepG2 cells; test: Cellular NAD level, spectrophotometric enzymatic cycling assay
Excerpt: F0 was the average d fluo rescen ce of si x backgr ound control s, repres ent ing zero activ ity from a si mul ated enz ym e reaction wit h on ly NAMP T but no NAM and com pound; F100 % was the average d fluorescen ce of si x ref erence cont rols, repr ese nt ing 100% activ ity from int act enz ym e reaction w ithou t com pound p ert ur bation.
Compounds with Activ ity% less tha n 40% were consi dered as inhi bi tor s and subj ect ed to a secondary screen inhi bition valida tion, in whi ch anot her backgr oun d cont rol (FC0), a si mul ated enz ym e reaction with NAMP Tand com pound but no NAM, was int roduced to elimina te the di rec t and /or ind irect inf lue nc e fro m compou nd. At thi s st age , the Activ ity% was cal culated accor ding t o e qua tion ( 2) :
In the screeni ng, the si gna l-to- noi se (S/N) rat io was cal cul ated usi ng the equa tion: (Mean signal -Mean backgr oun d) / SD backgr oun d4. Coe fficient s of vari atio n (CV) were the ratio of SD to mean. The Z ’f act or w as de term ine d by e qua tion (3) 5:
Z' −= (3)1−3(S Dhi ghsigna l+SDlowsigna l)
Mean hi gh signa l Meanlow signa l
Determ inat ion of IC50 for NAMPT inhi bitor s […]
vari ous con cent ration s were adde d int o 96-well pl ate. The pl ate was inc uba ted at 37 °C for 5 min after addition of 16.5 μl react ion buf fer cont aini ng N AMP T. The enz ym e reactions were ini tiated by 4.5 μl NAM (1.1 1 μM) follow ing NMN measurem ent as de scri bed above . […]
Cellul ar level of NAD was measured by spe ctrophot om etric enz ym atic cyc ling assa y, as de scri bed pr evi ousl y6-8. […]
Cell vi ability was de termine d by ou r previ ous method9 usi ng the Cell Counting Kit-8 (CCK -8, Dojindo, Ja pa n). […] Th e absor banc e at 450 nm (A450) was de tected by a pl ate reade r. […]
Briefly, cel ls were se ede d int o 96-well pl ates, cul tur ed overni ght , and trea ted with correspond ing com poun ds for 72 h. […] Sul for hoda mine B in the cells was di sso lved in 10 mmol/L Tris-HCl and was measured at 515 nm usi ng a multiw ell spect ropho tometer […]

[3] = test system: A549 cells; test: SRB assay in A549
Method: Sulfor hod am ine B p rotei n st ai ning (SRB) assay
Cell pr oliferat ion was eva lua ted by sul for hod amine B pr ot ein st aini ng (SRB) assa y10-12.
Briefly, cel ls were se ede d int o 96-well pl ates, cul tur ed overni ght , and trea ted with correspond ing com poun ds for 72 h. Cells were the n fixe d with 10% trichl or oa cetic aci d and st ained with sul for hoda mine B (Sigm a). Sul for hoda mine B in the cells was di sso lved in 10 mmol/L Tris-HCl and was measured at 515 nm usi ng a multiw ell spect ropho tometer (VERSA max, Mol ecul ar Devi ces, Sunnyva le, CA). The inhi bi tion rat e on cell pr olif eratio n was cal culated for each well as (A515contr ol cells-A 515tr eated cells)/A515contr ol cells×100 % (A515:
OD va lue at 515 nm ). The averag e IC50 va lue s were de termine d by Logit method from at leas t t hr eei nde pe nde nt test s.

With `O=S(=O)(c1ccc(NC(=S)NCc2cccnc2)cc1)N1CCCCC1` [MS0] the “cell viability (CCK-8), time course” value ([1]; HepG2, 10 μM, treatment for ≥36 hours) was “markedly inhibited”, the “cell viability (CCK-8)” value ([1]; HepG2, 24 hours, up to 10 μM) was “almost had no changes” and the IC50 ([1]; Homo sapiens, HepG2, 48 h, read-out: CCK-8 assay in HepG2: IC50) was 703 ± 95.4 nM. The “decrease of cellular NAD level” value ([2]; HepG2, 1 μM, 24 hours) was ~ 70%, the IC50 ([2]; Homo sapiens, HepG2, 24 hours treatment, read-out: IC50 for reducing NAD level) was 93.7 nM and the “growth inhibition (SRB, in words)” value ([3]; A549, 72 hours) was “potent growth inhibition”. For the same compound, the IC50 ([3]; Homo sapiens, A549, read-out: anti-proliferation IC50, initial screen) was less than 5000 nM.
